Experimental data reported in US20160324863A1, “TARGETED CANCER TREATMENT BY HSP90 INHIBITORS GANETESPIB AND NVP-AUY922” (SYNTA PHARMACEUTICALS CORP., priority 2014, published 2016).
pIC50: −log10 of the molar value. Where two headings read alike, the source gives them in different places.

Columns and labels:
[1] = system: SW-1710 bladder cancer cell line; experiment: CellTiter-Glo viability assay, SW-1710; format: cell-based; conditions: Homo sapiens, SW1710, FGFR3 status WT, 72 hours, read-out: Ganetespib IC50
Method: (§1) Cellular viability was assessed using the CellTiter-Glo Luminescent Cell Viability Assay (Promega) according to manufacturer protocols. Bladder cancer cell lines were seeded into 96-well plates based on optimal growth rates determined empirically for each line. Twenty-four hours after plating, cells were dosed with graded concentrations of ganetespib for 72 hours. CellTiter-Glo was added (50% v/v) to the cells, and the plates incubated for 10 minutes prior to luminescent detection in a SpectraMax Plus 384 microplate reader (Molecular Devices). Data were normalized to percent of control and IC50 values used to determine the sensitivity of each line. For the comparative analyses with ganetespib and BGJ398, RT112 cells were treated with graded concentrations of each compound for 72 hours and cell viability measured as above. For the evaluation of apoptotic induction, caspase activity was assessed using the Caspase-Glo 3/7 assay (Promega) according to manufacturer protocols. Twenty-four hours after plating, RT112 cells were treated with graded concentrations of ganetespib for 24 hours. Caspase-Glo was added to cells (50% v/v) and the plates incubated for 1 hour prior to luminescent detection.

HT29 cells = experiment: LC-MS/MS bioanalysis of ganetespib in HT29 cells; format: in vitro ADME, human; conditions: 1 μM ganetespib, 8 hr
Method: (§2) Colon cancer cells were treated with 1 μM ganetespib for 5, 15, 30, 60 or 480 minutes. At each time point, media was collected and cell lysates were generated for subsequent bioanalysis of secreted and intracellular concentrations of ganetespib and its glucuronides. Equal protein concentrations from cell lysates or equal volumes of media were used for the bioanalysis. Samples were extracted by protein precipitation and analyzed by LC-MS/MS using an Agilent 1100 HPLC interfaced to an API 4000 tandem mass spectrometer (Applied Biosystems). A Phenomenex Kinetex 2.6 μm C18 (30×2.1 mm) column was used with a run time of 3.5 min per sample.

[2] = system: RT4 bladder cancer cell line; experiment: CellTiter-Glo viability assay, RT4; format: cell-based
Method: as §1

[3] = system: RT112 bladder cancer cell line; experiment: CellTiter-Glo viability assay, RT112; format: cell-based; conditions: Homo sapiens
Method: as §1

RT112 xenografts = experiment: RT112 xenograft tumor model; format: in vivo; conditions: ganetespib 150 mg/kg i.v. once weekly, 3 weeks
Method: CD-1 nude mice (Charles River Laboratories, Wilmington, Mass.) at 7-12 weeks of age were maintained in a pathogen-free environment and all in vivo procedures were approved by the Synta Pharmaceuticals Corp. Institutional Animal Care and Use Committee. RT112 cells (5×10^6) were subcutaneously implanted into female mice and animals bearing established tumors (˜150 mm^3) were randomized into treatment groups of 8. Mice were i.v. dosed with ganetespib (150 mg/kg) once weekly or p.o. dosed with BGJ398 (10 mg/kg) daily, either alone or in combination, for 3 weeks. Tumor growth inhibition was monitored by tumor volume measurements twice weekly. As a measurement of in vivo efficacy, the % T/C value was determined from the change in average tumor volumes of each treated group relative to the vehicle treated animals. Statistical significance was determined using two-way ANOVA followed by Bonferroni post tests.

[4] = system: RT112 bladder cancer cells; experiment: Reverse phase protein array analysis in RT112 cells; format: cell-based; conditions: 100 nM ganetespib, 24 hours
Method: RT112 cells were treated with dimethyl sulfoxide (DMSO, control) or 100 nM ganetespib for 24 hours. Lysates were prepared as recommended by MD Anderson Cancer Center (Houston, Tex.), arrayed on nitrocellulose-coated FAST slides (Whatman) and probed for a standard list of antibodies.

[5] = system: MGH-U3 bladder cancer cell line; experiment: CellTiter-Glo viability assay, MGH-U3; format: cell-based; conditions: FGFR3 status Y375C, 72 hours, read-out: Ganetespib IC50
Method: as §1

[6] = system: J82 bladder cancer cell line; experiment: CellTiter-Glo viability assay, J82; format: cell-based; conditions: FGFR3 status K652E, 72 hours, read-out: Ganetespib IC50
Method: as §1

[7] = system: KU-19-19 bladder cancer cell line; experiment: CellTiter-Glo viability assay, KU-19-19; format: cell-based; conditions: Homo sapiens, FGFR3 status WT, 72 hours, read-out: Ganetespib IC50
Method: as §1

SW1463 cells = experiment: LC-MS/MS bioanalysis of ganetespib in SW1463 cells; format: in vitro ADME, human; conditions: 1 μM ganetespib, 8 hr
Method: as §2

[8] = system: BFTC bladder cancer cell line; experiment: CellTiter-Glo viability assay, BFTC; format: cell-based; conditions: FGFR3 status WT, 72 hours, read-out: Ganetespib IC50
Method: as §1

[9] = system: HT-1376 bladder cancer cell line; experiment: CellTiter-Glo viability assay, HT-1376; format: cell-based; conditions: Homo sapiens, FGFR3 status WT, 72 hours, read-out: Ganetespib IC50
Method: as §1

[10] = weekly dosing regimen; cited from earlier work

CC(C)c1cc(-c2n[nH]c(=O)n2-c2ccc3c(ccn3C)c2)c(O)cc1O [ganetespib]
pIC50 [1]: 8.22 | ganetespib present (HT29 cells): 13 nM | pIC50 ([2]; 72 hours (FIG. 8), read-out: IC50 values): < 6.00 | pIC50 ([2]; FGFR3 status FGFR3-TACC3, 72 hours, read-out: Ganetespib IC50): 5.76 | pIC50 ([3]; RT-112, 72-hour combination viability assay, single inhibitor, read-out: approximate IC50 concentrations): ~8.02 | pIC50 ([3]; RT-112, FGFR3 status FGFR3-TACC3, 72 hours, read-out: Ganetespib IC50): 8.05 | T/C value (RT112 xenografts): −23% | Fold Change AKT ([4]; AKT signaling): −2.4 fold | Fold Change AKT (pS473) ([4]; AKT signaling): −2.5 fold | Fold Change GSK3-A/B ([4]; AKT signaling): −1.5 fold | Fold Change GSK3-A/B (pS2/S9) ([4]; AKT signaling): −1.8 fold | Fold Change PDK1 ([4]; AKT signaling): −1.4 fold | Fold Change PDK1 (pS241) ([4]; AKT signaling): −1.7 fold | Fold Change BIM ([4]; Apoptosis): +1.4 fold | Fold Change Caspase 7 (cleaved D198) ([4]; Apoptosis): +2.5 fold | Fold Change CDK1 ([4]; Cell cycle regulation): −1.4 fold | Fold Change Chk1 ([4]; Cell cycle regulation): −3.2 fold | Fold Change Cyclin B1 ([4]; Cell cycle regulation): −1.9 fold | Fold Change Rb (pS807/811) ([4]; Cell cycle regulation): −4.6 fold | Fold Change p21 ([4]; Cell cycle regulation): +1.4 fold | Fold Change p27 ([4]; Cell cycle regulation): +1.5 fold | Fold Change C-RAF ([4]; MAPK pathway): −1.8 fold | Fold Change MAPK (pT202/Y204) ([4]; MAPK pathway): −1.5 fold | Fold Change MEK1 (pS217/S221) ([4]; MAPK pathway): −1.4 fold | Fold Change P90RSK (pT359/S363) ([4]; MAPK pathway): −1.4 fold | Fold Change Src (pY527) ([4]; MAPK pathway): −1.4 fold | Fold Change EGFR ([4]; Receptor Tyrosine Kinases): −1.5 fold | Fold Change EGFR (pY1068) ([4]; Receptor Tyrosine Kinases): −1.9 fold | Fold Change HER2 ([4]; Receptor Tyrosine Kinases): −2.2 fold | Fold Change HER2 (pY1248) ([4]; Receptor Tyrosine Kinases): −2.2 fold | Fold Change HER3 ([4]; Receptor Tyrosine Kinases): −1.6 fold | Fold Change MET (pY1235) ([4]; Receptor Tyrosine Kinases): −2.7 fold | Fold Change HSP70/72 ([4]; Stress response): +3.0 fold | Fold Change HSP90 alpha ([4]; Stress response): +1.6 fold | Fold Change NF-κB p65 (pS536) ([4]; Transcription factors): −2.3 fold | Fold Change c-Myc ([4]; Transcription factors): −2.5 fold | Fold Change 4E-BP1 (pS65) ([4]; mTOR pathway): −2.5 fold | Fold Change P70S6K (pT389) ([4]; mTOR pathway): −4.7 fold | Fold Change PRAS40 (pT246) ([4]; mTOR pathway): −1.2 fold | Fold Change S6 (pS235/S236) ([4]; mTOR pathway): −13.2 fold | Fold Change S6 (pS240/S244) ([4]; mTOR pathway): −8.9 fold | Fold Change TSC1 ([4]; mTOR pathway): −1.3 fold | Fold Change Tuberin ([4]; mTOR pathway): −2.2 fold | Fold Change mTOR (pS2448) ([4]; mTOR pathway): −2.2 fold | pIC50 [5]: 7.28 | pIC50 [6]: 7.74 | pIC50 [7]: 7.44 | ganetespib present (SW1463 cells): ~190 nM | pIC50 [8]: 7.77 | pIC50 [9]: 7.68 | maximally tolerated dose [10]: 150 mg/kg
